Test results published in ChEMBL document CHEMBL1614632, “Trend analysis of a database of intravenous pharmacokinetic parameters in humans for 670 drug compounds” (Drug Metab Dispos, 2008).

Experiments:
clinical [1] = conditions: human, in vivo, iv, Vdss
clinical [2] = conditions: human, in vivo, iv
clinical [3] = conditions: human, in vivo, iv; remark: listed apart in the source
[4] = human, in vivo, iv
clinical [5] = conditions: human, in vivo, iv, CL
[6] = human, in vivo, iv; remark: listed apart in the source
[7] = human, in vivo, iv; remark: listed apart in the source
[8] = human, in vivo, iv; remark: listed apart in the source
clinical [9] = conditions: human, in vivo, iv, t1/2
[10] = human, in vivo, iv; remark: listed apart in the source

SMILES	Vd (clinical [1])	fraction unbound (clinical [2])	MRT (clinical [3])	t1/2 [4]	clearance (clinical [5])	CL [6]	Vdss [7]	MRT [8]	half-life (clinical [9])	fu [10]
COc1cc2c(cc1OC)[C@@H](Cc1cc(OC)c(OC)c(OC)c1)[N+](C)(CCCOC(=O)CC/C=C/CCC(=O)OCCC[N+]1(C)CCc3cc(OC)c(OC)cc3[C@H]1Cc1cc(OC)c(OC)c(OC)c1)CC2 (some centres not stated)	0.27 L/kg	0.7	0.87 h	0.83 h	0.312 L/h/kg					
O=[N+]([O-])O[C@@H]1CO[C@H]2[C@@H]1OC[C@@H]2O (stereo in doubt; form 1) [ISOSORBIDE MONONITRATE]				1.9 h		0.372 L/h/kg	0.86 L/kg	2.3 h		
O=[N+]([O-])O[C@@H]1CO[C@H]2[C@@H]1OC[C@@H]2O (stereo in doubt; form 2) [ISOSORBIDE MONONITRATE]	0.7 L/kg			4.1 h		0.12 L/h/kg		5.8 h		
CCC1=C[C@@H]2CN(C1)Cc1c([nH]c3ccccc13)[C@@](C(=O)OC)(c1cc3c(cc1OC)N(C)[C@H]1[C@@](O)(C(=O)OC)[C@H](OC(C)=O)[C@]4(CC)C=CCN5CC[C@]31[C@@H]54)C2 (stereo in doubt; form 2) [VINORELBINE]		0.87		26 h		1.2 L/h/kg	23 L/kg	18 h		
CC1CNc2c(cccc2S(=O)(=O)N[C@@H](CCCNC(=N)N)C(=O)N2CC[C@@H](C)C[C@@H]2C(=O)O)C1 (some centres not stated) [ARGATROBAN]	0.17 L/kg		0.57 h	0.4 h	0.3 L/h/kg					
C[C@H]1[C@H](OC(=O)CCC(=O)O)O[C@@H]2O[C@@]3(C)CC[C@H]4[C@H](C)CC[C@@H]1[C@@]24OO3 [ARTESUNATE]		0.25	0.32 h			64.2 L/h/kg			0.22 h	
CCN(CC)CCCC(C)Nc1ccnc2cc(Cl)ccc12 (configuration not stated) [CHLOROQUINE]	140 L/kg		740 h	570 h	0.246 L/h/kg					
Clc1cccc(Cl)c1N=C1NCCN1 [CLONIDINE]	3.3 L/kg	0.56	14 h	7.6 h	0.24 L/h/kg					
COc1cc2c(c(OC)c1OC)-c1ccc(OC)c(=O)cc1[C@@H](NC(C)=O)CC2 [COLCHICINE]	6.1 L/kg		49 h	58 h	0.126 L/h/kg					
O=P1(N(CCCl)CCCl)NCCCO1 (configuration not stated) [CYCLOPHOSPHAMIDE ANHYDROUS]			11 h	8 h		0.066 L/h/kg				
COc1cccc2c1C(=O)c1c(O)c3c(c(O)c1C2=O)C[C@@](O)(C(=O)CO)C[C@@H]3O[C@H]1C[C@H](N)[C@@H](O)[C@H](C)O1 [EPIRUBICIN]	45 L/kg		38 h	36 h	1.2 L/h/kg					
COC(=O)CCc1ccc(OCC(O)CNC(C)C)cc1 (configuration not stated) [ESMOLOL]	1.2 L/kg	0.59	0.07 h	0.15 h	17.4 L/h/kg					
O=C(CCCN1CCC(O)(c2ccc(Cl)cc2)CC1)c1ccc(F)cc1 [HALOPERIDOL]	17 L/kg		36 h						35 h	0.08
O=[N+]([O-])O[C@H]1CO[C@H]2[C@@H]1OC[C@H]2O[N+](=O)[O-] [ISOSORBIDE DINITRATE]		0.72	1 h		1.86 L/h/kg		1.9 L/kg		1.69 h	
C[C@@H](O)[C@H]1C(=O)N2C(C(=O)O)=C(S[C@@H]3CN[C@H](C(=O)N(C)C)C3)[C@H](C)[C@H]12 [MEROPENEM]		0.87			0.234 L/h/kg			1.3 h	1 h	
COC(=O)C(c1ccccc1)C1CCCCN1 (configuration not stated) [METHYLPHENIDATE]		0.85		4.8 h		0.033 L/h/kg	2.2 L/kg	4.5 h		
NCCCC[C@H](NC(=O)[C@@H](Cc1cc(Br)c(O)c(Br)c1)NC(=O)N1CCC(N2Cc3ccccc3NC2=O)CC1)C(=O)N1CCN(c2ccncc2)CC1 [OLCEGEPANT]			1.9 h		0.156 L/h/kg		0.31 L/kg		2.5 h	
NCCC(O)(P(=O)(O)O)P(=O)(O)O [PAMIDRONIC ACID]	1.8 L/kg		12 h	32 h	0.15 L/h/kg					
COc1ccnc(C[S+]([O-])c2nc3ccc(OC(F)F)cc3[nH]2)c1OC (configuration not stated) [PANTOPRAZOLE]		0.02	1.9 h		0.132 L/h/kg		0.17 L/kg		1.9 h	
